Drawing on patent US20240208909A1, “SUBSTITUTED QUINOLINE DERIVATIVES HAVING SOS1 INHIBITION ACTIVITIES AND USES THEREOF” (Accutar Biotechnology Inc., priority 2022, published 2024), this text covers IC50 and GI50 for 24 molecules.

For one experiment, the target named is SOS1/KRAS-G12D (Homo sapiens (Human), UniProt Q07889). As to the kind of experiment: SOS1/KRAS-G12D binding inhibition assay (AlphaScreen). The settings on record: GST-SOS1 and 6*His KRAS-G12D, read-out: KrasG12D/SOS1 binding IC50. In a few lines: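 GST-SOS1 (5 nM) pre-incubated 30 min with His6-KRAS-G12D (50 nM) in HEPES pH 7.4, NaCl, DTT, MgCl2, Tween-20, BSA; compound in 2% DMSO then added for 30 min at 4° C. GSH donor and Ni-NTA acceptor AlphaScreen beads, 2 h at 4° C; background-corrected % inhibition versus DMSO, IC50 by variable-slope nonlinear regression.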
A general note: In Alpha technology, singlet oxygen from a donor bead excites a nearby acceptor bead.

The subject of the next experiment is K562 cells. As to the kind of experiment: Cell growth inhibition of K562 cells (CellTiter-Glo). The experiment is classed as cell-based. The settings on record: Homo sapiens, 120 h, 5 days. A general note: Cellular ATP, detected with luciferase, serves as a proxy for viable cell number.
For experiment [1], the system named is Phospho-ERK1/2 in DLD1 cells. The experiment in a line: Phospho-ERK1/2 expression inhibition in DLD1 cells. It counts as cell-based. The settings on record: Homo sapiens, DLD-1, 4 hours, read-out: DLD1 pERK IC50. In a few lines:
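DLD1 cells (15,000/well) were plated overnight, then exposed to compounds for 4 h at 37 °C. Cells were formaldehyde-fixed and methanol-permeabilized. Phospho-ERK1/2 was detected in-cell with rabbit anti-phospho-ERK1/2 and an IRDye 800CW secondary antibody, imaged on a LI-COR Odyssey.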

SOS1/KRAS-G12D, sequence (Q07889 564-1049 limits assumed): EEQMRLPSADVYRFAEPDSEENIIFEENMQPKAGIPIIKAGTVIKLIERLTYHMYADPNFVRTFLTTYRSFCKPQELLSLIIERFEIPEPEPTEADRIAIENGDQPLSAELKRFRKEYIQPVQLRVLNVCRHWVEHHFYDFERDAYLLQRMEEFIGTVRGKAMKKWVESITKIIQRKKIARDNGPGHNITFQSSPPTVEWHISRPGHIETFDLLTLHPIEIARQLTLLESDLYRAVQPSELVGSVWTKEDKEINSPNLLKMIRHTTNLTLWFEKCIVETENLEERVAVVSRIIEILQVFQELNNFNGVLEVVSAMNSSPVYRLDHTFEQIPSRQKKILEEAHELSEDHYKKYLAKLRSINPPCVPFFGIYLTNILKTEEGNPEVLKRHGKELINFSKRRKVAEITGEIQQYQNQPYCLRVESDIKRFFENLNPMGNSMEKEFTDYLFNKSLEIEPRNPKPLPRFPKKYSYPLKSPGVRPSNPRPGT

As for `CO[C@@]1(c2ccc3nccc(N[C@H](C)c4cccc(C(F)F)c4F)c3c2)CCN(C(=O)C(C)C)C1` [Compound 91, 1-((R)-3-(4-(((R)-1-(3-(difluoromethyl)-2-fluorophenyl)ethyl)amino)quinolin-6-yl)-3-methoxypyrrolidin-1-yl)-2-methylpropan-1-one], the IC50 on SOS1/KRAS-G12D is ≤ 0.01 µM; in experiment [1], > 0.5 µM. Further, the GI50 in the experiment with K562 cells lay within 0.1 to 0.5 µM.

As for `C[C@@H](Nc1ccnc2ccc(N3CCC(N)CC3)cc12)c1cccc(C(F)F)c1F` [Compound 49, (R)-6-(4-aminopiperidin-1-yl)-N-(1-(3-(difluoromethyl)-2-fluorophenyl)ethyl)quinolin-4-amine], the IC50 at SOS1/KRAS-G12D is ≤ 0.01 µM; in experiment [1], > 0.5 µM. The molecule also had a concentration for 50% growth inhibition (GI50) in the experiment on K562 cells of 0.1 to 0.5 µM.

Take `CC(=O)N1CCN(c2ccc3nccc(N[C@H](C)c4cccc(C(F)(F)F)c4C)c3c2)CC12CC2` [Compound 70, (R)-1-(7-(4-((1-(2-methyl-3-(trifluoromethyl)phenyl)ethyl)amino)quinolin-6-yl)-4,7-diazaspiro[2.5]octan-4-yl)ethan-1-one]: the IC50 on SOS1/KRAS-G12D was 0.01 to 0.1 µM; in experiment [1], > 0.5 µM. In the experiment on K562 cells, this molecule yielded a GI50 of 0.1 to 0.5 µM.

As to `Cc1cc(N[C@H](C)c2cccc(C(F)(F)F)c2C)c2cc(N3CCNCC3)ccc2n1` [Compound 1, (R)-2-methyl-N-(1-(2-methyl-3-(trifluoromethyl)phenyl)ethyl)-6-(piperazin-1-yl)quinolin-4-amine], the IC50 at SOS1/KRAS-G12D is 0.01 to 0.1 µM; in experiment [1], > 0.5 µM. In addition, in the experiment on K562 cells, the GI50 is > 0.5 µM.

Take `Cc1c([C@@H](C)Nc2ccnc3ccc(N4C[C@H](C)NC[C@H]4C)cc23)cccc1C(F)(F)F` [Compound 54, 6-((2R,5S)-2,5-dimethylpiperazin-1-yl)-N-((R)-1-(2-methyl-3-(trifluoromethyl)phenyl)ethyl)quinolin-4-amine]: the IC50 is 0.01 to 0.1 µM on SOS1/KRAS-G12D and > 0.5 µM in experiment [1]. Further, the GI50 in the experiment on K562 cells is 0.1 to 0.5 µM.

In the case of `CO[C@]1(c2ccc3nccc(N[C@H](C)c4cccc(C(F)F)c4F)c3c2)CCN(C(C)=O)C1` [Compound 76, 1-((S)-3-(4-(((R)-1-(3-(difluoromethyl)-2-fluorophenyl)ethyl)amino)quinolin-6-yl)-3-methoxypyrrolidin-1-yl)ethan-1-one], the IC50 was ≤ 0.01 µM at SOS1/KRAS-G12D and ≤ 0.15 µM in experiment [1]. In the experiment on K562 cells, the GI50 is ≤ 0.1 µM.

For the molecule `COC(=O)N1CC[C@](OC)(c2ccc3nccc(N[C@H](C)c4cccc(C(F)F)c4F)c3c2)C1` [Compound 89, methyl (S)-3-(4-(((R)-1-(3-(difluoromethyl)-2-fluorophenyl)ethyl)amino)quinolin-6-yl)-3-methoxypyrrolidine-1-carboxylate], the IC50 at SOS1/KRAS-G12D is ≤ 0.01 µM; in experiment [1], > 0.5 µM. The GI50 with K562 cells was ≤ 0.1 µM.

For `Cc1c([C@@H](C)Nc2ccnc3ccc(N4CCN(C(=O)C(C)C)CC4)cc23)cccc1C(F)(F)F` [Compound 46, (R)-2-methyl-1-(4-(4-((1-(2-methyl-3-(trifluoromethyl)phenyl)ethyl)amino)quinolin-6-yl)piperazin-1-yl)propan-1-one], the values for the IC50 (on SOS1/KRAS-G12D; in experiment [1]) were 0.01 to 0.1 µM and 0.15 to 0.5 µM, respectively. For the same molecule, the GI50 with K562 cells lay in the range of 0.1 to 0.5 µM.

With `CO[C@@]1(c2ccc3nccc(N[C@H](C)c4cccc(C#N)c4C)c3c2)CCN(C(C)=O)C1` [Compound 87, 3-((R)-1-((6-((R)-1-acetyl-3-methoxypyrrolidin-3-yl)quinolin-4-yl)amino)ethyl)-2-methylbenzonitrile], the IC50 at SOS1/KRAS-G12D is > 0.1 µM; in experiment [1], > 0.5 µM. Moreover, the GI50 in the experiment on K562 cells is > 0.5 µM.

Consider `CNC(=O)N1CC[C@@](OC)(c2ccc3nccc(N[C@H](C)c4cccc(C(F)F)c4F)c3c2)C1` [Compound 101, (R)-3-(4-(((R)-1-(3-(difluoromethyl)-2-fluorophenyl)ethyl)amino)quinolin-6-yl)-3-methoxy-N-methylpyrrolidine-1-carboxamide], for which the IC50 was ≤ 0.01 µM at SOS1/KRAS-G12D and > 0.5 µM in experiment [1]. The GI50 with K562 cells fell in the range of 0.1 to 0.5 µM.

Regarding `CC(=O)N1CCN(c2ccc3nccc(N[C@H](C)c4cccc(C(F)(F)F)c4C)c3c2)CC1` [Compound 27, (R)-1-(4-(4-((1-(2-methyl-3-(trifluoromethyl)phenyl)ethyl)amino)quinolin-6-yl)piperazin-1-yl)ethan-1-one], the IC50 on SOS1/KRAS-G12D is 0.01 to 0.1 µM; in experiment [1], > 0.5 µM. Further, the GI50 in the experiment with K562 cells was > 0.5 µM.

With `Cc1c([C@@H](C)Nc2ccnc3ccc(N4CCC(N(C)C)CC4)cc23)cccc1C(F)(F)F` [Compound 32, (R)-6-(4-(dimethylamino)piperidin-1-yl)-N-(1-(2-methyl-3-(trifluoromethyl)phenyl)ethyl)quinolin-4-amine], the IC50 at SOS1/KRAS-G12D was 0.01 to 0.1 µM; in experiment [1], > 0.5 µM. In the experiment on K562 cells, this molecule yielded a GI50 of 0.1 to 0.5 µM.

As for `COc1cc2nccc(N[C@H](C)c3cccc(C(F)(F)F)c3C)c2cc1N1CCN(C(=O)C2COC2)CC1` [Compound 47], the IC50 on SOS1/KRAS-G12D was 0.01 to 0.1 µM; in experiment [1], > 0.5 µM. The GI50 in the experiment with K562 cells is 0.1 to 0.5 µM.

Turning to `CO[C@@]1(c2ccc3nccc(N[C@H](C)c4cccc(C(F)F)c4F)c3c2)CCN(C(=O)C2CC2)C1` [Compound 95, cyclopropyl((R)-3-(4-(((R)-1-(3-(difluoromethyl)-2-fluorophenyl)ethyl)amino)quinolin-6-yl)-3-methoxypyrrolidin-1-yl)methanone], the figures for the IC50 (at SOS1/KRAS-G12D; in experiment [1]) were ≤ 0.01 µM and > 0.5 µM, respectively. Also, the GI50 in the experiment on K562 cells is 0.1 to 0.5 µM.

Regarding `C[C@@H](Nc1ccnc2ccc(N3CCN(C(=O)[C@@H]4CCOC4)CC3)cc12)c1cccc(C(F)F)c1F` [Compound 15, (4-(4-(((R)-1-(3-(difluoromethyl)-2-fluorophenyl)ethyl)amino)quinolin-6-yl)piperazin-1-yl)((R)-tetrahydrofuran-3-yl)methanone], the IC50 on SOS1/KRAS-G12D is ≤ 0.01 µM; in experiment [1], ≤ 0.15 µM. Besides, the GI50 with K562 cells fell in the range of 0.1 to 0.5 µM.

Consider `CC(=O)N1C2CC1CN(c1ccc3nccc(N[C@H](C)c4cccc(C(F)(F)F)c4C)c3c1)C2` [Compound 64, 1-(3-(4-(((R)-1-(2-methyl-3-(trifluoromethyl)phenyl)ethyl)amino)quinolin-6-yl)-3,6-diazabicyclo[3.1.1]heptan-6-yl)ethan-1-one], for which the IC50 at SOS1/KRAS-G12D was 0.01 to 0.1 µM; in experiment [1], > 0.5 µM. In the experiment on K562 cells, the GI50 was > 0.5 µM.

As for `CC(=O)N1CCC(O)(c2ccc3nccc(N[C@H](C)c4cccc(C(F)F)c4F)c3c2)CC1` [Compound 40, (R)-1-(4-(4-((1-(3-(difluoromethyl)-2-fluorophenyl)ethyl)amino)quinolin-6-yl)-4-hydroxypiperidin-1-yl)ethan-1-one], the IC50 on SOS1/KRAS-G12D is ≤ 0.01 µM; in experiment [1], 0.15 to 0.5 µM. Further, the GI50 in the experiment with K562 cells was ≤ 0.1 µM.

Turning to `Cc1c([C@@H](C)Nc2ccnc3ccc(N4CCNC5(CC5)C4)cc23)cccc1C(F)(F)F` [Compound 69, (R)-N-(1-(2-methyl-3-(trifluoromethyl)phenyl)ethyl)-6-(4,7-diazaspiro[2.5]octan-7-yl)quinolin-4-amine], the IC50 on SOS1/KRAS-G12D was 0.01 to 0.1 µM; in experiment [1], > 0.5 µM. Moreover, the GI50 in the experiment on K562 cells lay in the range of 0.1 to 0.5 µM.

As to `CO[C@]1(c2ccc3nccc(N[C@H](C)c4cccc(C#N)c4C)c3c2)CCN(C(C)=O)C1` [Compound 88, 3-((R)-1-((6-((S)-1-acetyl-3-methoxypyrrolidin-3-yl)quinolin-4-yl)amino)ethyl)-2-methylbenzonitrile], the IC50 on SOS1/KRAS-G12D was 0.01 to 0.1 µM; in experiment [1] it was ≤ 0.15 µM. For the same molecule, the GI50 in the experiment on K562 cells lay in the range of 0.1 to 0.5 µM.

Consider `C[C@@H](Nc1ccnc2ccc(N3CCOCC3)cc12)c1cccc(C(F)F)c1F` [Compound 48, (R)-N-(1-(3-(difluoromethyl)-2-fluorophenyl)ethyl)-6-morpholinoquinolin-4-amine], for which the IC50 on SOS1/KRAS-G12D was ≤ 0.01 µM; in experiment [1], ≤ 0.15 µM. Moreover, in the experiment on K562 cells, the GI50 is ≤ 0.1 µM.

Turning to `COc1cc2nccc(N[C@H](C)c3cccc(C(F)(F)F)c3C)c2cc1N1CCNCC1` [Compound 55, (R)-7-methoxy-N-(1-(2-methyl-3-(trifluoromethyl)phenyl)ethyl)-6-(piperazin-1-yl)quinolin-4-amine], the results for the IC50 (on SOS1/KRAS-G12D; in experiment [1]) were 0.01 to 0.1 µM and > 0.5 µM, respectively. In addition, in the experiment on K562 cells, the GI50 is > 0.5 µM.

For `CC(=O)N1CCCN(c2ccc3nccc(N[C@H](C)c4cccc(C(F)(F)F)c4C)c3c2)CC1` [Compound 62, (R)-1-(4-(4-((1-(2-methyl-3-(trifluoromethyl)phenyl)ethyl)amino)quinolin-6-yl)-1,4-diazepan-1-yl)ethan-1-one], the IC50 is > 0.1 µM at SOS1/KRAS-G12D and > 0.5 µM in experiment [1]. In addition, the GI50 with K562 cells is > 0.5 µM.

Consider `CC(=O)N1CCC(F)(c2ccc3nccc(NC(C)c4cccc(C(F)F)c4F)c3c2)CC1` (stereo not drawn) [Compound 84, 1-(4-(4-((1-(3-(difluoromethyl)-2-fluorophenyl)ethyl)amino)quinolin-6-yl)-4-fluoropiperidin-1-yl)ethan-1-one], for which the results for the IC50 (on SOS1/KRAS-G12D; in experiment [1]) were ≤ 0.01 µM and 0.15 to 0.5 µM, respectively. For the same molecule, the GI50 with K562 cells was ≤ 0.1 µM.

In the case of `CO[C@]1(c2ccc3nccc(N[C@H](C)c4cccc(C(F)F)c4F)c3c2)CCN(C(=O)C2CC2)C1` [Compound 96, cyclopropyl((S)-3-(4-(((R)-1-(3-(difluoromethyl)-2-fluorophenyl)ethyl)amino)quinolin-6-yl)-3-methoxypyrrolidin-1-yl)methanone], the IC50 on SOS1/KRAS-G12D is ≤ 0.01 µM; in experiment [1], 0.15 to 0.5 µM. For the same molecule, the GI50 in the experiment with K562 cells was ≤ 0.1 µM.

As a reminder, the GI50 is the concentration that inhibits growth by half.
